In patent publication US12077503B2, “Substituted cyclic amides and their use as herbicides” (FMC CORPORATION, priority 2015, dated 2024):

What was measured:
Type in all cases: in vivo
[1] = tested on: velvetleaf (Abutilon theophrasti); assay: Test G Pre-Emergence Protocol; conditions: Abutilon theophrasti, pre-emergence, 312 h, evaluated after 13 days
Procedure, shortened: (§1)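 Under a 24/16° C day/night regime with 14 h light and 65% humidity, sown pots were sprayed after one day with compound (15.625, 62.5 or 250 g/ha; 50:50 acetone/water, 0.5% Tween 20). Damage was assessed visually 13 days later, 0 to 100.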

[2] = tested on: ivy-leaved morning glory (Ipomoea hederacea); assay: Test G Pre-Emergence Protocol; conditions: Ipomoea, pre-emergence, 312 h, evaluated after 13 days
Procedure, shortened: as §1

[3] = tested on: giant foxtail (Setaria faberi); assay: Test G Pre-Emergence Protocol; conditions: Setaria faberi, pre-emergence, 312 h, evaluated after 13 days
Procedure, shortened: as §1

[4] = tested on: barnyardgrass (Echinochloa crus-galli); assay: Test G Pre-Emergence Protocol; conditions: Echinochloa crus-galli, pre-emergence, 312 h, evaluated after 13 days
Procedure, shortened: as §1

corn (Zea mays) [5] = assay: Test G Pre-Emergence Protocol; conditions: Zea mays, pre-emergence, 312 h, evaluated after 13 days
Procedure, shortened: as §1

[6] = tested on: redroot pigweed (Amaranthus retroflexus); assay: Test G Pre-Emergence Protocol; conditions: Amaranthus retroflexus, pre-emergence, 312 h, evaluated after 13 days
Procedure, shortened: as §1

[7] = tested on: velvetleaf (Abutilon theophrasti); assay: Test G Post-Emergence Protocol; conditions: Abutilon theophrasti, post-emergence, 312 h
Procedure, shortened: (§2)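 Seedlings grown 8 days in soil in a glasshouse (24/16 °C day/night, 14 h light, 65% humidity) were sprayed post-emergence with compound in acetone/water 50:50 plus 0.5% Tween 20 at 15.625, 62.5 or 250 g/ha. Damage was scored after 13 days on a 0–100 scale (100 = total damage).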

[8] = tested on: ivy-leaved morning glory (Ipomoea hederacea); assay: Test G Post-Emergence Protocol; conditions: Ipomoea, post-emergence, 312 h
Procedure, shortened: as §2

[9] = tested on: giant foxtail (Setaria faberi); assay: Test G Post-Emergence Protocol; conditions: Setaria faberi, post-emergence, 312 h
Procedure, shortened: as §2

[10] = tested on: barnyardgrass (Echinochloa crus-galli); assay: Test G Post-Emergence Protocol; conditions: Echinochloa crus-galli, post-emergence, 312 h
Procedure, shortened: as §2

corn (Zea mays) [11] = assay: Test G Post-Emergence Protocol; conditions: Zea mays, post-emergence, 312 h
Procedure, shortened: as §2

[12] = tested on: redroot pigweed (Amaranthus retroflexus); assay: Test G Post-Emergence Protocol; conditions: Amaranthus retroflexus, post-emergence, 312 h
Procedure, shortened: as §2

In the case of `Cc1ccc([C@@H]2CN(C)C(=O)[C@H]2C(=O)Nc2cccc(F)c2F)cc1Cl` (racemic) [Compound 1475], the pest or weed control at 15.625 g/ha ([1]; 15.625 g ai/ha, read-out: Velvetleaf damage rating (100=total damage to plant; 0=no damage to plant)) is reported as 0%, the pest or weed control at 62.5 g/ha ([1]; 62.5 g ai/ha, 100=total damage to plant, 0=no damage to plant, read-out: plant damage rating, Velvetleaf) is reported as 0% and the pest or weed control at 250 g/ha ([1]; 250 g ai/ha, read-out: Velvetleaf damage rating (100=total damage to plant; 0=no damage to plant)) is reported as 0%. The pest or weed control at 15.625 g/ha ([2]; 15.625 g ai/ha, read-out: Morning-glory, Ivy-leaved damage rating (100=total damage to plant; 0=no damage to plant)) was 0%, the pest or weed control at 62.5 g/ha ([2]; 62.5 g ai/ha, 100=total damage to plant, 0=no damage to plant, read-out: plant damage rating, Morningglory, Ivy-leaved) was 0% and the pest or weed control at 250 g/ha ([2]; 250 g ai/ha, read-out: Morningglory, Ivy-leaved damage rating (100=total damage to plant; 0=no damage to plant)) was 10%. It also gave a pest or weed control at 15.625 g/ha ([3]; 15.625 g ai/ha, read-out: Foxtail, Giant damage rating (100=total damage to plant; 0=no damage to plant)) of 70%, a pest or weed control at 62.5 g/ha ([3]; 62.5 g ai/ha, 100=total damage to plant, 0=no damage to plant, read-out: plant damage rating, Foxtail, Giant) of 80% and a pest or weed control at 250 g/ha ([3]; 250 g ai/ha, read-out: Foxtail, Giant damage rating (100=total damage to plant; 0=no damage to plant)) of 90%. The pest or weed control at 15.625 g/ha ([4]; 15.625 g ai/ha, read-out: Barnyard grass damage rating (100=total damage to plant; 0=no damage to plant)) was 10%, the pest or weed control at 62.5 g/ha ([4]; 62.5 g ai/ha, 100=total damage to plant, 0=no damage to plant, read-out: plant damage rating, Barnyardgrass) was 70% and the pest or weed control at 250 g/ha ([4]; 250 g ai/ha, read-out: Barnyardgrass damage rating (100=total damage to plant; 0=no damage to plant)) was 80%. For the same compound, the plant injury at 15.625 g/ha (corn (Zea mays) [5]; 15.625 g ai/ha, read-out: Corn damage rating (100=total damage to plant; 0=no damage to plant)) was 0%, the plant injury at 62.5 g/ha (corn (Zea mays) [5]; 62.5 g ai/ha, 100=total damage to plant, 0=no damage to plant, read-out: plant damage rating, Corn) was 30% and the plant injury at 250 g/ha (corn (Zea mays) [5]; 250 g ai/ha, read-out: Corn damage rating (100=total damage to plant; 0=no damage to plant)) was 50%. For the same compound, the pest or weed control at 15.625 g/ha ([6]; 15.625 g ai/ha, read-out: Pigweed, Redroot damage rating (100=total damage to plant; 0=no damage to plant)) was 0%, the pest or weed control at 62.5 g/ha ([6]; 62.5 g ai/ha, 100=total damage to plant, 0=no damage to plant, read-out: plant damage rating, Pigweed, Redroot) was 0% and the pest or weed control at 250 g/ha ([6]; 250 g ai/ha, read-out: Pigweed, Redroot damage rating (100=total damage to plant; 0=no damage to plant)) was 0%. For the same compound, the pest or weed control at 15.625 g/ha ([7]; 15.625 g ai/ha, evaluated after 13 days (100=total damage to plant; 0=no damage to plant), read-out: Velvetleaf damage rating) was 10%, the pest or weed control at 62.5 g/ha ([7]; 62.5 g ai/ha, evaluated after 13 days, read-out: Velvetleaf damage rating (100=total damage to plant; 0=no damage to plant)) was 10% and the pest or weed control at 250 g/ha ([7]; 250 g ai/ha, evaluated after 13 days, read-out: damage to plant, Velvetleaf (100=total damage to plant; 0=no damage to plant)) was 10%. The pest or weed control at 15.625 g/ha ([8]; 15.625 g ai/ha, evaluated after 13 days (100=total damage to plant; 0=no damage to plant), read-out: Morningglory, Ivy-leaved damage rating) was 20%, the pest or weed control at 62.5 g/ha ([8]; 62.5 g ai/ha, evaluated after 13 days, read-out: Morningglory, Ivy-leaved damage rating (100=total damage to plant; 0=no damage to plant)) was 0% and the pest or weed control at 250 g/ha ([8]; 250 g ai/ha, evaluated after 13 days, read-out: damage to plant, Morningglory, Ivy-leaved (100=total damage to plant; 0=no damage to plant)) was 70%. It also gave a pest or weed control at 15.625 g/ha ([9]; 15.625 g ai/ha, evaluated after 13 days (100=total damage to plant; 0=no damage to plant), read-out: Foxtail, Giant damage rating) of 70%, a pest or weed control at 62.5 g/ha ([9]; 62.5 g ai/ha, evaluated after 13 days, read-out: Foxtail, Giant damage rating (100=total damage to plant; 0=no damage to plant)) of 70% and a pest or weed control at 250 g/ha ([9]; 250 g ai/ha, evaluated after 13 days, read-out: damage to plant, Foxtail, Giant (100=total damage to plant; 0=no damage to plant)) of 70%. For the same compound, the pest or weed control at 15.625 g/ha ([10]; 15.625 g ai/ha, evaluated after 13 days (100=total damage to plant; 0=no damage to plant), read-out: Barnyardgrass damage rating) was 30%, the pest or weed control at 62.5 g/ha ([10]; 62.5 g ai/ha, evaluated after 13 days, read-out: Barnyardgrass damage rating (100=total damage to plant; 0=no damage to plant)) was 60% and the pest or weed control at 250 g/ha ([10]; 250 g ai/ha, evaluated after 13 days, read-out: damage to plant, Barnyardgrass (100=total damage to plant; 0=no damage to plant)) was 50%. It also gave a plant injury at 15.625 g/ha (corn (Zea mays) [11]; 15.625 g ai/ha, evaluated after 13 days (100=total damage to plant; 0=no damage to plant), read-out: Corn damage rating) of 30%, a plant injury at 62.5 g/ha (corn (Zea mays) [11]; 62.5 g ai/ha, evaluated after 13 days, read-out: Corn damage rating (100=total damage to plant; 0=no damage to plant)) of 40% and a plant injury at 250 g/ha (corn (Zea mays) [11]; 250 g ai/ha, evaluated after 13 days, read-out: damage to plant, Corn (100=total damage to plant; 0=no damage to plant)) of 70%. The pest or weed control at 15.625 g/ha ([12]; 15.625 g ai/ha, evaluated after 13 days (100=total damage to plant; 0=no damage to plant), read-out: Pigweed, Redroot damage rating) was 10%, the pest or weed control at 62.5 g/ha ([12]; 62.5 g ai/ha, evaluated after 13 days, read-out: Pigweed, Redroot damage rating (100=total damage to plant; 0=no damage to plant)) was 30% and the pest or weed control at 250 g/ha ([12]; 250 g ai/ha, evaluated after 13 days, read-out: damage to plant, Pigweed, Redroot (100=total damage to plant; 0=no damage to plant)) was 50%.
